In the supplement of paper PMC10307832:

Tests used:
Experiment in all cases: relative viability (nuclei count vs DMSO), 5 days (fraction); higher = more cells survive
PAC-1 + Phenformin = compound: C=CCc1cccc(/C=N/NC(=O)CN2CCN(Cc3ccccc3)CC2)c1O [PAC-1] + N=C(N)NC(=N)NCCc1ccccc1 [Phenformin] (partner 250 µM)
Outline: (§1)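 The day after seeding in 1536-well plates, lung cancer cell lines were treated by pin tool with a single drug, or with a fixed anchor-drug dose together with five library-drug doses (not always all listed) in √10 steps. After 5 days, a combined fix-and-stain solution (final 0.05% Triton X-100, 1% formaldehyde, 1 ug/ml Hoechst) was added. Nuclei counted on 4× images gave relative viability as treated counts over vehicle counts, reported as the median of duplicate plates.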

Ibrutinib + Trametinib = compound: C=CC(=O)N1CCC[C@@H](n2nc(-c3ccc(Oc4ccccc4)cc3)c3c(N)ncnc32)C1 [Ibrutinib] + CC(=O)Nc1cccc(-n2c(=O)n(C3CC3)c(=O)c3c(Nc4ccc(I)cc4F)n(C)c(=O)c(C)c32)c1 [Trametinib] (partner 0.02 µM)
Outline: as §1

BMX-IN-1 + Dasatinib = compound: C=CC(=O)Nc1cc(-n2c(=O)ccc3cnc4ccc(-c5ccc(NS(C)(=O)=O)cc5)cc4c32)ccc1C [BMX-IN-1] + Cc1nc(Nc2ncc(C(=O)Nc3c(C)cccc3Cl)s2)cc(N2CCN(CCO)CC2)n1 [Dasatinib] (partner 0.075 µM)
Outline: as §1

PAC-1 + Olaparib = compound: C=CCc1cccc(/C=N/NC(=O)CN2CCN(Cc3ccccc3)CC2)c1O [PAC-1] + O=C(c1cc(Cc2n[nH]c(=O)c3ccccc23)ccc1F)N1CCN(C(=O)C2CC2)CC1 [Olaparib] (partner 8 µM)
Outline: as §1

Cell Line | relative viability (PAC-1 + Phenformin; first compound 0.02 µM) | relative viability (PAC-1 + Phenformin; first compound 0.06325 µM) | relative viability (PAC-1 + Phenformin; first compound 0.2 µM) | relative viability (PAC-1 + Phenformin; first compound 2 µM) | relative viability (Ibrutinib + Trametinib; first compound 0.005 µM) | relative viability (Ibrutinib + Trametinib; first compound 0.01581 µM) | relative viability (Ibrutinib + Trametinib; first compound 0.05 µM) | relative viability (Ibrutinib + Trametinib; first compound 0.1581 µM) | relative viability (Ibrutinib + Trametinib; first compound 0.5 µM) | relative viability (BMX-IN-1 + Dasatinib; first compound 0.02 µM) | relative viability (BMX-IN-1 + Dasatinib; first compound 0.2 µM) | relative viability (BMX-IN-1 + Dasatinib; first compound 0.6325 µM) | relative viability (BMX-IN-1 + Dasatinib; first compound 2 µM) | relative viability (PAC-1 + Olaparib; first compound 0.02 µM) | relative viability (PAC-1 + Olaparib; first compound 0.06325 µM) | relative viability (PAC-1 + Olaparib; first compound 0.2 µM) | relative viability (PAC-1 + Olaparib; first compound 2 µM)
NCI-H1666 | 0.589 | 0.559 | 0.695 | 0.549 | 0.809 | 0.849 | 0.832 | 0.938 | 0.744 | 0.905 | 0.839 | 0.94 | 0.845 | 0.688 | 0.745 | 0.75 | 0.729
NCI-H650 | 0.469 | 0.452 | 0.403 | 0.444 | 0.921 | 0.967 | 1.01 | 1.06 | 0.976 | 0.49 | 0.469 | 0.517 | 0.478 | 0.328 | 0.41 | 0.387 | 0.381
EPLC-272H | 0.298 | 0.339 | 0.241 | 0.288 |  | 0.293 | 0.311 | 0.277 | 0.243 | 0.354 | 0.266 | 0.393 | 0.314 | 0.763 | 0.817 | 0.606 | 0.567
LXF-289 | 0.52 | 0.53 | 0.501 | 0.511 | 0.703 | 0.649 | 0.689 | 0.694 | 0.722 | 0.197 | 0.204 | 0.247 | 0.266 | 1.07 | 1.03 | 1.05 | 1.03
LOU-NH91 | 0.713 | 0.695 | 0.668 | 0.798 | 0.744 | 0.74 | 0.725 | 0.783 | 0.655 | 0.553 |  | 0.657 | 0.559 | 0.884 | 0.908 | 0.92 | 0.879
LCLC-103H | 0.347 | 0.322 | 0.365 | 0.341 | 0.677 | 0.645 | 0.716 | 0.739 | 0.605 | 0.519 | 0.477 | 0.522 | 0.535 | 0.771 | 0.824 | 0.761 | 0.745
NCI-H1944 | 0.198 | 0.198 | 0.19 | 0.189 | 0.423 | 0.369 | 0.395 | 0.363 | 0.374 | 0.203 | 0.188 | 0.222 | 0.206 | 0.389 | 0.434 | 0.425 | 0.402
IA-LM |  |  |  |  |  |  |  |  |  |  |  |  |  | 0.806 | 0.964 | 0.952 | 0.833
NCI-H1299 |  |  |  |  |  |  |  |  |  |  |  |  |  | 0.947 | 0.933 | 0.937 | 0.895
NCI-H1648 |  |  |  |  | 0.565 | 0.433 | 0.316 | 0.418 | 0.257 |  |  |  |  | 0.573 | 0.646 | 0.889 | 0.832
NCI-H1703 |  |  |  |  |  |  |  |  |  |  |  |  |  | 0.376 | 0.401 | 0.388 | 0.341
NCI-H1623 | 0.6 | 0.565 | 0.592 | 0.602 |  |  |  |  |  | 0.529 | 0.526 | 0.569 | 0.504 |  |  |  | 
ABC-1 | 0.217 | 0.231 | 0.24 | 0.21 |  |  |  |  |  | 0.465 | 0.545 | 0.598 | 0.601 | 0.781 | 0.668 | 0.848 | 0.741
